Test results from patent US8664276B2, “Stilbene analogs and methods of treating cancer” (University of Kentucky Research Foundation, priority 2011, dated 2014).

Tests used:
LS174 CRC cells = experiment: CRC cell proliferation assay (Vi-Cell); format: cell-based
Procedure: Luciferase and cell proliferation assay. HEK293T cells were transiently transfected in a 12-well plate with 0.2 μg of the Super8xTOPFlash reporter and 0.05 μg of Renilla luciferase reporter. Culture medium was changed after 12 h. After 6 h, cells were treated with DMSO or Wnt inhibitors for 12 h, and then treated with 25 mM LiCl or Wnt conditioned medium. After 12 h, cells were harvested and luciferase activity measured by Dual-luciferase Reporter Assay System (Promega, Madison Wis.). All conditions were done in triplicate and each experiment was carried out at least two times. For cell proliferation assay, CRC cells were treated with DMSO or inhibitors for 2d and 4d. The cell numbers and viability were analyzed by Vi-Cell Cell Viability Analyzer.
(§1) Western blot and cell proliferation assay. The activity of fluorinated N,N-dialkylaminostilbenes (FIDAS or FIDAS agents) on Wnt signaling activity in cancer cells were analyzed by Western blot with antibodies against Wnt target genes, such as c-Myc, Axin2. The effects of FlDAS agents on cancer cell growth were analyzed using Cell Viability Analyzer (Beckman Coulter, Vi-Cell XR). These assays have been described previously (see Zhang et al., J. of Med. Chem. 54, 1288-1297 (2011)).

HT29 xenografted tumors = experiment: HT29 tumor xenograft in nude mice, oral gavage; format: in vivo; settings: HT29, 20 mg/kg in PEG400 by gavage
Procedure: Tumor xenograft in nude mice. LS174 or HT29 colon cancer cells (2×10^6) were injected subcutaneously into both flanks of 6-8 week C57BL/6J athymic nude mice as described in Zhang et al., Mol Cell Biol 2006, 26, 2055-2064. Compound 4r or 4dd was dissolved in corn oil or PEG400. The mice were treated with 20 mg/kg/day of 4r by ip injection or gavage (50 μl/mouse). Control mice were treated with same volume of corn oil or PEG400. The body weight and tumor growth were analyzed twice weekly for one month. Tumor size was measured using digital caliper. The tumor volume was calculated by the formula: V=½LW^2 (mm^3).
Xenografted nude mice were developed according to the protocol described above and in Zhang et al., J. of Med. Chem. 54, 1288-1297 (2011)). Briefly, HT29 cells were injected subcutaneously into the flanks of nude mice. The mice were then treated with 20 mg/kg compound 4dd dissolved in PEG400 by gavage. As described in Example 7, an IP injection of compound 4r dissolved in corn oil inhibited xenograft tumor growth. Here, it was also shown that the halogenated stilbenes of the present disclosure can also be dissolved in other solvents such as PEG400 and cyclodextran.

Tolerability in mice = format: in vivo
Procedure: Therefore, as shown in this example, the halogenated stilbene analogs of the present disclosure are capable of inhibiting CRC both in vitro and in vivo. In another study, it was shown that mice could tolerate at least 200 mg/kg of a halogenated stilbene analog, FlDAS 4dd.

liver cancer cells = experiment: Liver cancer cell proliferation; format: cell-based; settings: FIG. 15
Procedure: as §1
As previously shown, several metabolites of the halogenated stilbenes of the present disclosure were synthesized (Example 2 and FIG. 3). In this study, the effects of some of these metabolites on cell proliferation were studied.

MAT2A [1] = target: T1, MAT2A (Homo sapiens, UniProt P31153); experiment: Cell based SAM and SAH analysis in LS174 colon cancer cells (LC-MS/MS); parameters: endogenous in cells; host or cells: LS174T; settings: 3 μM of 4dd versus 10 uM of 4r and 30 uM of resveratrol
Procedure: (§2) SAM and SAH analysis by LC-MS/MS. The LC-MS/MS system consisted of two Varian ProStar 210 LC Pumps coupled with a Varian 1200L triple quadrupole mass spectrometer. The separation was performed on a Hypercarb column (50 mm×2.1 mm, […], Thermo Scientific #35003-052130). Gradient elution started with 98% solution A (0.1% formic acid in water), followed by an increase to 38% solution B (0.1% formic acid in acetonitrile) in 8 min. The column was than flushed with 90% B for 5 min and regenerated with 98% A for another 8 min. The flow rate was 0.25 mL/min. Between the 3rd and 11th min, the eluent was switched to the ion source of the mass spectrometer. The precursor product transitions for SAM (m/z 399→250), SAH (m/z 385→250) and [d-4]-SAH (m/z 389→136) were monitored. The optimized ion source parameters were: Capillary Voltage: 32 V for both SAM and SAH, Collision energy: 9 V and 7V for SAM and SAH, respectively, Needle voltage: 5000 V and the Shield voltage: 600V. Nitrogen was used as the drying gas at a temperature of 300° C. and the interface heater was set to 50° C. The drying gas and nebulizing gas were set to 20 and 50 psi, respectively.
Cell based SAM analysis. […] 5 ul of supernatants were analyzed by LC-MS/MS using a modified method based on a previous publication (see Krijt et al., J Chromatogr B Analyt Technol Biomed Life Sci 877, 2061-6, (2009)). […]

[2] = tested on: Wnt target genes, Axin2 and c-Myc; experiment: Western blot of Wnt target proteins in LS174 CRC cells; format: cell-based
Procedure: Western blot. Western blots were performed using the following antibodies: β-catenin (Sigma, C2206), c-Myc (Epitomics, 1472-1), Axin2 (Cell Signaling, 2151), β-Actin (Sigma, A1978), TCF4 (Epitomics, 2114-1) and pygopus2 (Santa Cruz, sc-74878), Cyclin D1 (Cell signaling, 2926).
(§3) Cyclin B1 levels were decreased, whereas p21^WAF1/CIP1 levels increased, consistent with the fact that p21^WAF1/CIP1 expression is repressed by c-Myc. β-catenin levels were not affected by resveratrol. Next, the mRNA levels of β-catenin target genes were analyzed using RT-PCR. Expression of survivin, Lgr5, CD44, and c-Myc were decreased in resveratrol-treated cells.
A panel of stilbene analogs was designed and synthesized (FIGS. 2, 3, 5A and 6A). […] However, the solubility of 4d was poor and it was not effective below 10 μM concentrations (data not shown). To improve its solubility and activity, compound 4d was modified with 2′-fluoro 4e, 3′-fluoro 4f and 4′-fluoro 4g substituents (FIG. 5D). Both compounds 4e and 4f had good activity at 10 μM, (E)-4-(2-fluorostyryl)-N,N-dimethylaniline.
as §1

Solubility = format: physicochemical
Wnt signaling = experiment: TopFlash luciferase reporter assay in HEK293T cells; format: cell-based; settings: HEK293T
Procedure: Luciferase and cell proliferation assay. HEK293T cells were transiently transfected in a 12-well plate with 0.2 μg of the Super8xTOPFlash reporter and 0.05 μg of Renilla luciferase reporter. Culture medium was changed after 12 h. After 6 h, cells were treated with DMSO or Wnt inhibitors for 12 h, and then treated with 25 mM LiCl or Wnt conditioned medium. After 12 h, cells were harvested and luciferase activity measured by Dual-luciferase Reporter Assay System (Promega, Madison Wis.). All conditions were done in triplicate and each experiment was carried out at least two times. For cell proliferation assay, CRC cells were treated with DMSO or inhibitors for 2d and 4d. The cell numbers and viability were analyzed by Vi-Cell Cell Viability Analyzer. To identify Wnt pathway inhibitors for CRC prevention and treatment, a number of anti-cancer agents from plants were screened using the TopFlash reporter assay. The TopFlash reporter was transfected into HEK293T cells, and the cells were treated with Wnt3A-conditioned medium in order to activate the luciferase reporter. […] To determine if resveratrol regulates β-catenin degradation, the cells were treated with 25 mM LiCl, which inhibits GSK-3 and stabilizes β-catenin. In this assay, LiCl activated the reporter more strongly than Wnt3A conditioned medium. […] Emodin is an anti-cancer agent from plants; it exists in many unpurified resveratrol products. Emodin had no effect on Wnt signaling. See Zhang et al., J. of Med. Chem. 54, 1288-1297 (2011).

β-catenin target genes = experiment: RT-PCR of β-catenin target genes in LS174 cells; format: cell-based; settings: LS174 cells
Procedure: RT-PCR. LS174 cells were treated with DMSO or Wnt inhibitors. After 36 h, RNA was isolated using the RNeasy kit (Qiagen). RT-PCR was performed as described in Zhang et al., Mol Cell Biol 2006, 26, 2055-2064. The following primers were used: β-actin: 5′-CAACCGCGAGAAGATGAC-3′ (SEQ ID NO:01), 5′-AGGAAGGCTGGAAGAGTG-3′ (SEQ ID NO:02); surivivin: 5′-[…]-3′ (SEQ ID NO:03), 5′-[…]-3′ (SEQ ID NO:04); c-Myc: 5′-TGGGCTGTGAGGAGGTTTG-3′ (SEQ ID NO:05), 5′-TATGTGGAGCGGCTTCTCG-3′ (SEQ ID NO:06); Axin2: 5′-[…]-3′ (SEQ ID NO:07), 5′-[…]-3′ (SEQ ID NO:08); TCF4: 5′-[…]-3′ (SEQ ID NO:09), 5′-[…]-3′ (SEQ ID NO:10); pygopus2: 5′-GGCCGGTCTGCAAATGAAG-3′ (SEQ ID NO:11), 5′-TCCACCTCCAGTGCTGTAG-3′ (SEQ ID NO:12); Lgr5: 5′-[…]-3′ (SEQ ID NO:13), 5′-[…]-3′ (SEQ ID NO:14); CD44: 5′-[…]-3′ (SEQ ID NO:15), 5′-[…]-3′ (SEQ ID NO:16); Ki67: 5′-[…]-3′ (SEQ ID NO:17), 5′-[…]-3′ (SEQ ID NO:18).
as §3

MAT2A [3] = target: T1, MAT2A; experiment: In-vitro SAM synthesis by MAT2A (LC-MS/MS); format: biochemical; parameters: GST (N); made in house
Procedure: as §2
SAM synthesis. […] purified MAT2A was incubated with 1 mM L-methionine and 1 mM ATP in […] reaction solution (50 mM Tris.Cl, 50 mM KCl, 10 mM MgCl2) for 5 min at 25° C. […] SAM was analyzed by LC-MS/MS. […]

CNc1ccc(/C=C/c2c(F)cccc2Cl)cc1 [4dd, (E)-4-(2-chloro-6-fluorostyryl)-N-methylaniline]
colon cancer cell proliferation, effectiveness versus resveratrol and 4r (LS174 CRC cells; FIG. 14): significantly more effective than resveratrol, as well as compound 4r | effect on body weight (HT29 xenografted tumors): without any adverse effect | growth of xenografted tumors (HT29 xenografted tumors): significantly inhibits | tolerated dose (Tolerability in mice): at least 200 mg/kg | body weights (Tolerability in mice; 200 mg/kg (data not shown)): reduced after one week but were recovered to normal weight after stopping 4dd treatment | liver cancer cell proliferation, effectiveness versus resveratrol and 4r (liver cancer cells): significantly more effective than resveratrol, as well as compound 4r | inhibition of MAT2A and reduction of SAM and SAH (MAT2A [1]): even more potent than 4r

CN(C)c1ccc(/C=C/c2ccccc2)cc1 [4d, (E)-4-styryl-N,N-dimethylaniline, reference compound]
repression of Wnt target genes at 30 μM ([2]; 30 μM, CRC cells): strongly repressed | Wnt inhibitory activity in Western blot, qualitative or relative to a comparator ([2]; CRC cells): more active than 4-methoxystilbene (4b) | effectiveness on Wnt target genes below 10 μM ([2]; below 10 μM concentrations (data not shown)): not effective | solubility (Solubility): poor

Oc1ccc(/C=C/c2cc(O)cc(O)c2)cc1 [resveratrol, trans- or (E)-3,5,4′-trihydroxystilbene, reference compound]
LiCl-induced Wnt signaling (Wnt signaling; 25 mM LiCl): strongly inhibited | Wnt-induced luciferase activity (Wnt signaling; Wnt3A-conditioned medium, 100 μM): significantly inhibited | protein levels of TCF4 and pygopus2 ([2]; CRC cells): reduced | β-catenin levels ([2]; CRC cells): not affected | Cyclin B1 levels ([2]; LS174 CRC cells): decreased | p21WAF1/CIP1 levels ([2]; LS174 CRC cells): increased | protein levels of c-Myc and Cyclin D1 ([2]; LS174 CRC cells): reduced | protein levels of Wnt/β-catenin targets at 100 μM ([2]; LS174 cells, 100 μM): reduced the protein levels | cell proliferation marker Ki67 mRNA (β-catenin target genes): also decreased | mRNA expression of survivin, Lgr5, CD44, and c-Myc (β-catenin target genes): decreased | LS174 cell proliferation (LS174 CRC cells; treated for 2d and 4d): inhibited cell proliferation | MAT2A activity in SAM synthesis (MAT2A [3]): inhibit MAT2A activity
